Key:
MCF7 [1] = experiment: Induction of cell cycle arrest in human MCF7 over expressing CYP1A cells assessed as accumulation at S phase incubated for 24 hrs by PI staining based flow cytometric analysis (reference value: 20.1%); assay type: functional
MCF7 [2] = experiment: Induction of cell cycle arrest in human MCF7 over expressing CYP1A cells assessed as accumulation at G0/G1 phase incubated for 24 hrs by PI staining based flow cytometric analysis (Rvb =54.3 %); assay type: functional
Cytochrome P450 3A4 = Cytochrome P450 3A4 (Homo sapiens, UniProt P08684); experiment: Inhibition of human CYP3A4 expressed in Sacchrosomes using dibenzylfluorescein as substrate by fluorescence based assay; assay type: ADME
Chain of Cytochrome P450 3A4 (P08684 whole entry): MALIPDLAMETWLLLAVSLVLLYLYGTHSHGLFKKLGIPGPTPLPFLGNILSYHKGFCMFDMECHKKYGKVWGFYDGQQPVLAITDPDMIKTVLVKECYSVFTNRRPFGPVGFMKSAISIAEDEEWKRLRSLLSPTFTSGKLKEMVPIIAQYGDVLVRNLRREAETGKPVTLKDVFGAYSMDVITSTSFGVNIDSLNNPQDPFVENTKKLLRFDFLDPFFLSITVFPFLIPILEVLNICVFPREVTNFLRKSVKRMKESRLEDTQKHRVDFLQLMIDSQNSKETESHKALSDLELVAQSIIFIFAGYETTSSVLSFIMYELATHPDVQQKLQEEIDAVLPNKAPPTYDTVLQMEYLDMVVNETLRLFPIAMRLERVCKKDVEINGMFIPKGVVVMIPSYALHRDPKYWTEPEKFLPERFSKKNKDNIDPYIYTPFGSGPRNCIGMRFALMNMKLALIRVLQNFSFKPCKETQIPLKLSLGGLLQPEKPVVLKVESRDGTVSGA

Homo sapiens [3] = species: Homo sapiens; experiment: Selectivity ratio IC50 for inhibition of human CYP1B1 expressed in sacchrosomes toIC50 for Inhibition of CYP1A1 expressed in sacchrosomes
Homo sapiens [4] = species: Homo sapiens; experiment: Selectivity ratio IC50 for inhibition of human CYP1A2 expressed in sacchrosomes toIC50 for Inhibition of CYP1A1 expressed in sacchrosomes

SMILES	Activity (MCF7 [1])	Activity (MCF7 [2])	IC50 (Cytochrome P450 3A4)	Ratio IC50 (Homo sapiens [3])	Ratio IC50 (Homo sapiens [4])
O=c1cc(-c2ccccc2)oc2c1ccc1occc12 [LANCEOLATIN B]	7.1%	81%	> 20 µM	–	–
COc1c(-c2ccc3c(c2)OCO3)oc2c(ccc3occc32)c1=O [PONGAPIN]	6.7%	83.8%	> 20 µM	52	13
